# Source: the supplement of paper PMC10307832
# What was measured:
# Test in all cases: relative viability (nuclei count vs DMSO), 5 days (fraction); higher = more cells survive
# BEN = tested on: BEN
# How it was run: (§1)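 Lung cancer cell lines in 1536-well plates were dosed by pin tool the day after seeding, either with one drug alone or with a fixed anchor-drug dose plus five library-drug doses (not always all listed) in √10 steps. After 5 days, cells were fixed and their nuclei stained in one step (final 0.05% Triton X-100, 1% formaldehyde, 1 ug/ml Hoechst), then counted on 4× images. Relative viability is the nuclei count in treated wells divided by that in vehicle wells. Values are medians of duplicate plates.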
# CAL-12T = tested on: CAL-12T
# How it was run: as §1
# COR-L23 = tested on: COR-L23
# How it was run: as §1
# HCC-366 = tested on: HCC-366
# How it was run: as §1
# LOU-NH91 = tested on: LOU-NH91
# How it was run: as §1
# LU99A = tested on: LU99A
# How it was run: as §1
# NCI-H1355 = tested on: NCI-H1355
# How it was run: as §1
# NCI-H1437 = tested on: NCI-H1437
# How it was run: as §1
# NCI-H1563 = tested on: NCI-H1563
# How it was run: as §1
# NCI-H1650 = tested on: NCI-H1650
# How it was run: as §1
# NCI-H1651 = tested on: NCI-H1651
# How it was run: as §1
# NCI-H1734 = tested on: NCI-H1734
# How it was run: as §1
# NCI-H1793 = tested on: NCI-H1793
# How it was run: as §1
# NCI-H1975 = tested on: NCI-H1975
# How it was run: as §1
# NCI-H2023 = tested on: NCI-H2023
# How it was run: as §1
# NCI-H2085 = tested on: NCI-H2085
# How it was run: as §1
# NCI-H2342 = tested on: NCI-H2342
# How it was run: as §1
# NCI-H358 = tested on: NCI-H358
# How it was run: as §1
# NCI-H441 = tested on: NCI-H441
# How it was run: as §1
# NCI-H460 = tested on: NCI-H460
# How it was run: as §1
# NCI-H838 = tested on: NCI-H838
# How it was run: as §1
# SK-LU-1 = tested on: SK-LU-1
# How it was run: as §1
compound,measurement,setting,value
Nc1ccn([C@@H]2O[C@H](CO)[C@@H](O)[C@@H]2O)c(=O)n1 [Cytarabine] + COc1cccc2cc(-c3nc([C@H]4CC[C@H](C(=O)O)CC4)n4ncnc(N)c34)[nH]c12 [OSI-027] (partner 0.5 µM),relative viability,BEN; first compound 0.005 µM,0.5
same,relative viability,BEN; first compound 0.01581 µM,0.315
same,relative viability,BEN; first compound 0.05 µM,0.309
same,relative viability,BEN; first compound 0.1581 µM,0.263
same,relative viability,BEN; first compound 0.5 µM,0.217
same,relative viability,CAL-12T; first compound 0.005 µM,0.697
same,relative viability,CAL-12T; first compound 0.01581 µM,0.507
same,relative viability,CAL-12T; first compound 0.05 µM,0.524
same,relative viability,CAL-12T; first compound 0.1581 µM,0.233
same,relative viability,CAL-12T; first compound 0.5 µM,0.197
same,relative viability,COR-L23; first compound 0.005 µM,0.396
same,relative viability,COR-L23; first compound 0.01581 µM,0.546
same,relative viability,COR-L23; first compound 0.05 µM,0.546
same,relative viability,COR-L23; first compound 0.1581 µM,0.16
same,relative viability,COR-L23; first compound 0.5 µM,0.116
same,relative viability,HCC-366; first compound 0.005 µM,0.823
same,relative viability,HCC-366; first compound 0.01581 µM,0.61
same,relative viability,HCC-366; first compound 0.05 µM,0.558
same,relative viability,HCC-366; first compound 0.1581 µM,0.213
same,relative viability,HCC-366; first compound 0.5 µM,0.06
same,relative viability,LOU-NH91; first compound 0.005 µM,0.664
same,relative viability,LOU-NH91; first compound 0.01581 µM,0.739
same,relative viability,LOU-NH91; first compound 0.05 µM,0.597
same,relative viability,LOU-NH91; first compound 0.1581 µM,0.486
same,relative viability,LOU-NH91; first compound 0.5 µM,0.585
same,relative viability,LU99A; first compound 0.005 µM,0.287
same,relative viability,LU99A; first compound 0.01581 µM,0.271
same,relative viability,LU99A; first compound 0.05 µM,0.288
same,relative viability,LU99A; first compound 0.1581 µM,0.288
same,relative viability,LU99A; first compound 0.5 µM,0.281
same,relative viability,NCI-H1355; first compound 0.005 µM,0.41
same,relative viability,NCI-H1355; first compound 0.01581 µM,0.402
same,relative viability,NCI-H1355; first compound 0.05 µM,0.31
same,relative viability,NCI-H1355; first compound 0.1581 µM,0.2
same,relative viability,NCI-H1355; first compound 0.5 µM,0.21
same,relative viability,NCI-H1437; first compound 0.005 µM,0.797
same,relative viability,NCI-H1437; first compound 0.01581 µM,0.584
same,relative viability,NCI-H1437; first compound 0.05 µM,0.541
same,relative viability,NCI-H1437; first compound 0.1581 µM,0.233
same,relative viability,NCI-H1437; first compound 0.5 µM,0.211
same,relative viability,NCI-H1563; first compound 0.005 µM,0.691
same,relative viability,NCI-H1563; first compound 0.01581 µM,0.797
same,relative viability,NCI-H1563; first compound 0.05 µM,0.773
same,relative viability,NCI-H1563; first compound 0.1581 µM,0.583
same,relative viability,NCI-H1563; first compound 0.5 µM,0.628
same,relative viability,NCI-H1650; first compound 0.005 µM,0.44
same,relative viability,NCI-H1650; first compound 0.01581 µM,0.507
same,relative viability,NCI-H1650; first compound 0.05 µM,0.354
same,relative viability,NCI-H1650; first compound 0.1581 µM,0.311
same,relative viability,NCI-H1650; first compound 0.5 µM,0.259
same,relative viability,NCI-H1651; first compound 0.005 µM,0.792
same,relative viability,NCI-H1651; first compound 0.01581 µM,0.675
same,relative viability,NCI-H1651; first compound 0.05 µM,0.81
same,relative viability,NCI-H1651; first compound 0.1581 µM,0.442
same,relative viability,NCI-H1651; first compound 0.5 µM,0.298
same,relative viability,NCI-H1734; first compound 0.005 µM,0.355
same,relative viability,NCI-H1734; first compound 0.01581 µM,0.285
same,relative viability,NCI-H1734; first compound 0.05 µM,0.222
same,relative viability,NCI-H1734; first compound 0.1581 µM,0.133
same,relative viability,NCI-H1734; first compound 0.5 µM,0.13
same,relative viability,NCI-H1793; first compound 0.005 µM,0.296
same,relative viability,NCI-H1793; first compound 0.01581 µM,0.285
same,relative viability,NCI-H1793; first compound 0.05 µM,0.245
same,relative viability,NCI-H1793; first compound 0.1581 µM,0.198
same,relative viability,NCI-H1793; first compound 0.5 µM,0.197
same,relative viability,NCI-H1975; first compound 0.005 µM,0.532
same,relative viability,NCI-H1975; first compound 0.01581 µM,0.775
same,relative viability,NCI-H1975; first compound 0.05 µM,0.917
same,relative viability,NCI-H1975; first compound 0.1581 µM,0.6
same,relative viability,NCI-H1975; first compound 0.5 µM,0.315
same,relative viability,NCI-H2023; first compound 0.005 µM,0.212
same,relative viability,NCI-H2023; first compound 0.01581 µM,0.152
same,relative viability,NCI-H2023; first compound 0.05 µM,0.107
same,relative viability,NCI-H2023; first compound 0.1581 µM,0.104
same,relative viability,NCI-H2023; first compound 0.5 µM,0.102
same,relative viability,NCI-H2085; first compound 0.005 µM,0.535
same,relative viability,NCI-H2085; first compound 0.01581 µM,0.735
same,relative viability,NCI-H2085; first compound 0.05 µM,0.623
same,relative viability,NCI-H2085; first compound 0.1581 µM,0.442
same,relative viability,NCI-H2085; first compound 0.5 µM,0.459
same,relative viability,NCI-H2342; first compound 0.005 µM,0.511
same,relative viability,NCI-H2342; first compound 0.01581 µM,0.591
same,relative viability,NCI-H2342; first compound 0.05 µM,0.511
same,relative viability,NCI-H2342; first compound 0.1581 µM,0.549
same,relative viability,NCI-H2342; first compound 0.5 µM,0.459
same,relative viability,NCI-H358; first compound 0.005 µM,0.608
same,relative viability,NCI-H358; first compound 0.01581 µM,0.631
same,relative viability,NCI-H358; first compound 0.05 µM,0.35
same,relative viability,NCI-H358; first compound 0.1581 µM,0.104
same,relative viability,NCI-H358; first compound 0.5 µM,0.091
same,relative viability,NCI-H441; first compound 0.005 µM,0.629
same,relative viability,NCI-H441; first compound 0.01581 µM,0.638
same,relative viability,NCI-H441; first compound 0.05 µM,0.617
same,relative viability,NCI-H441; first compound 0.1581 µM,0.422
same,relative viability,NCI-H441; first compound 0.5 µM,0.291
same,relative viability,NCI-H460; first compound 0.005 µM,0.384
same,relative viability,NCI-H460; first compound 0.01581 µM,0.486
same,relative viability,NCI-H460; first compound 0.05 µM,0.301
same,relative viability,NCI-H460; first compound 0.1581 µM,0.055
same,relative viability,NCI-H460; first compound 0.5 µM,0.0359
same,relative viability,NCI-H838; first compound 0.005 µM,0.397
same,relative viability,NCI-H838; first compound 0.01581 µM,0.379
same,relative viability,NCI-H838; first compound 0.05 µM,0.4
same,relative viability,NCI-H838; first compound 0.1581 µM,0.273
same,relative viability,NCI-H838; first compound 0.5 µM,0.185
same,relative viability,SK-LU-1; first compound 0.005 µM,0.275
same,relative viability,SK-LU-1; first compound 0.01581 µM,0.294
same,relative viability,SK-LU-1; first compound 0.05 µM,0.297
same,relative viability,SK-LU-1; first compound 0.1581 µM,0.193
same,relative viability,SK-LU-1; first compound 0.5 µM,0.199
